Assay results reported in patent publication US20120219596A1, “INJECTABLE FORMULATION FOR TREATMENT AND PROTECTION OF PATIENTS HAVING AN INFLAMMATORY REACTION OR AN ISCHEMIA-REPERFUSION EVENT” (ETH Zurich, priority 2009, published 2012).
Where two headings read alike, the source gives them in different places.

What was measured:
[1] = system: MCP-1 levels of rat alveolar epithelial cells; experiment: MCP-1 levels in supernatants of LPS-stimulated rat alveolar epithelial cells (ELISA); assay type: cell-based
Experimental: Table 2 MCP-1 levels of rat alveolar epithelial cells measured in supernatants in relation to an exposition to LPS without any substance (positive control=100%)
(§1) METHODS: Different molecules with CF3-group were tested against their corresponding non-fluorinated molecules. The group of molecules with CF3-group included hexafluoroisopropanol, 2,2,3,3,3-pentafluoro-1-propanol, 2,2,2-trifluorethanol, 3-amino-4,4,4-tri-fluorobutyroic acid, methyl-4,4,4-trifluoro-acetoacetate, methyl-trifluoro-acetamide, 5,5,5-trifluorleucine and Sevoflurane. In the group without CFx moieties 2-propanol, 1-propanol, ethanol, leucine, and diethyl ether were included. As well established model rat alveolar epithelial cells (AEC) and human blood microvascular cells (HMVEC) were exposed to phosphate-buffered saline (PBS, negative control) or LPS (20 μg/ml) for 6 hours (positive control). The influence of fluorinated compounds and non-fluorinated reference compounds on the inflammatory response of the cells was tested. Expression of rat-MCP-1 (BD Biosciences, San Diego, Calif.) and human CINC-1 GROa (R&D Systems Europe Ltd.) protein were analyzed by ELISA. Evaluation of possible cytotoxicity was done counting cells by means of fluorescence DNA quantification assays. At the same time release of lactate dehydrogenase into the supernatants was measured (LDH Assay, Promega, Madison, Wis., USA).

[2] = system: CINC-1/GROa protein levels of human blood micro vascular endothelial cells; experiment: CINC-1/GROa protein levels in supernatants of LPS-stimulated HMVEC (ELISA); assay type: cell-based; conditions: for CINC-1/GROa protein level in relation to LPS without any substance, Median: HMVEC, LPS 20 μg/ml 6 hours, positive control=100%
Experimental: Table 1 CINC-1/GROa protein levels of human blood micro vascular endothelial cells measured in supernatants in relation to an exposition to LPS without any substance (positive control=100%)
as §1

[3] = system: human microvascular endothelial cells (HMVEC); experiment: Viability and cytotoxicity in HMVEC (LDH release, fluorescence DNA quantification); assay type: cell-based; conditions: LDH release and cell count by fluorescence DNA quantification, in relation to control (100%), FIG. 1
Experimental: Viability is assessed by measuring the release of lactate de-hydrogenase and cytotoxicity is quantified by counting cells by means of fluorescence DNA quantification assays (see example 1). […] Concentration level differences are presented in relation to control (100%).
as §1

[4] = cited from earlier work
[5] = cited from earlier work; remark: listed apart in the source
[6] = system: inflammatory mediators and tissue damage markers (troponin or serum transaminase levels); conditions: patients undergoing lung, heart or liver surgery; cited from earlier work
[7] = system: polymorphonuclear neutrophils; experiment: Chemotactic migration of polymorphonuclear neutrophils towards supernatants from LPS-stimulated endothelial cells; assay type: cell-based; conditions: 16 mmol/L, FIG. 2
Experimental: Furthermore, the effect of hexafluoro-2-propanol in a concentration of 16 mmol/L on the chemotactic migration of polymorphonuclear neutrophils towards supernatants from LPS-stimulated endothelial cells (right side, 270)° and towards supernatants from LPS-stimulated endothelial cells incubated with hexafluoro-2-propanol (left side, 90°) was assessed according to (De Conno et al., Anesthesiology 2009; 110:1316-1326)

[8] = rat AEC, LPS 20 μg/ml 6 hours, 16 mmol/l in culture medium, positive control=100%
[9] = rat AEC, LPS 20 μg/ml 6 hours, 32 mmol/l in culture medium, positive control=100%
[10] = rat AEC, LPS 20 μg/ml 6 hours, 64 mmol/l in culture medium, positive control=100%
[11] = Epithelial cell, rat AEC, LPS 20 μg/ml 6 hours, 16 mmol/l in culture medium, positive control=100%, read-out: MCP-1 level in relation to LPS without any substance, Median
[12] = Epithelial cell, rat AEC, LPS 20 μg/ml 6 hours, 64 mmol/l in culture medium, positive control=100%, read-out: MCP-1 level in relation to LPS without any substance, Median
[13] = footnote 1: Qiana et al., Journal of Chromatography A 2007
[14] = Epithelial cell, rat AEC, LPS 20 μg/ml 6 hours, 32 mmol/l in culture medium, positive control=100%, read-out: MCP-1 level in relation to LPS without any substance, Median
[15] = Rattus norvegicus, Epithelial cell, 6 h, read-out: MCP-1 level in relation to LPS without any substance, Median

CC(N)CC(=O)O (racemic) [DL-3-Amino-n-butyric acid, reference compound]
MCP-1 level in relation to LPS without any substance, Median ([1]; rat AEC, LPS 20 μg/ml 6 hours, 8 mmol/l in culture medium, positive control=100%): 95% | MCP-1 level in relation to LPS without any substance, Median [1, 8]: 91% | MCP-1 level in relation to LPS without any substance, Median [1, 9]: 149% | MCP-1 level in relation to LPS without any substance, Median [1, 10]: 117%

CCCO [1-Propanol, reference compound]
MCP-1 level in relation to LPS without any substance, Median [1, 8]: 99% | MCP-1 level in relation to LPS without any substance, Median [1, 10]: 74% | CINC-1/GROa protein level in relation to LPS without any substance, Median ([2]; 16 mmol/l in culture medium): 82% | CINC-1/GROa protein level in relation to LPS without any substance, Median ([2]; 32 mmol/l in culture medium): 81% | CINC-1/GROa protein level in relation to LPS without any substance, Median ([2]; 64 mmol/l in culture medium): 64%

OCC(F)(F)F [2,2,2-Trifluorethanol, 2,2,2-Trifluoroethanol]
activity at 16000 µM [1, 11]: 58% | activity at 64000 µM [1, 12]: 59% | Viability and cytotoxicity in HMVEC [3]: does not cause significant cytotoxicity | Octanol water partition coefficient [4, 13]: 0.17 ^(1) | CINC-1/GROa protein level in relation to LPS without any substance, Median ([2]; 16 mmol/l in culture medium): 98% | CINC-1/GROa protein level in relation to LPS without any substance, Median ([2]; 32 mmol/l in culture medium): 78% | CINC-1/GROa protein level in relation to LPS without any substance, Median ([2]; 64 mmol/l in culture medium): 73% | Solubility ([5]; in words): miscible

OCC(F)(F)C(F)(F)F [2,2,3,3,3-Pentafluoro-1-propanol]
activity at 16000 µM [1, 11]: 92% | activity at 64000 µM [1, 12]: 70% | CINC-1/GROa protein level in relation to LPS without any substance, Median ([2]; 16 mmol/l in culture medium): 115% | CINC-1/GROa protein level in relation to LPS without any substance, Median ([2]; 32 mmol/l in culture medium): 41% | CINC-1/GROa protein level in relation to LPS without any substance, Median ([2]; 64 mmol/l in culture medium): 31% | Solubility ([5]; 25° C.): 21.9 g/L (25° C.)

CC(C)O [2-Propanol, reference compound]
MCP-1 level in relation to LPS without any substance, Median [1, 8]: 101% | MCP-1 level in relation to LPS without any substance, Median [1, 9]: 86% | MCP-1 level in relation to LPS without any substance, Median [1, 10]: 82% | CINC-1/GROa protein level in relation to LPS without any substance, Median ([2]; 4 mmol/l in culture medium): 109% | CINC-1/GROa protein level in relation to LPS without any substance, Median ([2]; 16 mmol/l in culture medium): 97%

NC(CC(=O)O)C(F)(F)F (centres unmarked) [3-Amino-4,4,4-Trifluorobutyroic acid, 3-Amino-4,4,4-trifluorobutyric acid]
activity at 16000 µM [1, 11]: 101% | activity at 32000 µM [1, 14]: 44% | activity at 64000 µM [1, 12]: 0% | Viability and cytotoxicity in HMVEC [3]: does not cause significant cytotoxicity | melting point: 180 to 190 °C | CINC-1/GROa protein level in relation to LPS without any substance, Median ([2]; 8 mmol/l in culture medium): 79% | CINC-1/GROa protein level in relation to LPS without any substance, Median ([2]; 16 mmol/l in culture medium): 0% | CINC-1/GROa protein level in relation to LPS without any substance, Median ([2]; 64 mmol/l in culture medium): 0%

CC(C[C@H](N)C(=O)O)C(F)(F)F (some centres unmarked) [5,5,5-Trifluorleucine]
MCP-1 level in relation to LPS without any substance, Median [1, 8]: 68%

ClC(Cl)Cl [Chloroform, reference compound]
activity at 64000 µM [1, 15]: 171%

FC(F)OC(F)C(F)(F)F (centres unmarked) [Desflurane]
Octanol water partition coefficient ([4]; footnote 2: Urban et al. 1995): 28.5 | Inflammatory mediators and tissue damage markers in patients [6]: significantly reduces

CCO [Ethanol, reference compound]
activity at 16000 µM [1, 11]: 103% | activity at 64000 µM [1, 12]: 92% | CINC-1/GROa protein level in relation to LPS without any substance, Median ([2]; 16 mmol/l in culture medium): 107% | CINC-1/GROa protein level in relation to LPS without any substance, Median ([2]; 32 mmol/l in culture medium): 91% | CINC-1/GROa protein level in relation to LPS without any substance, Median ([2]; 64 mmol/l in culture medium): 88%

FC(F)(F)C(Cl)Br (centres unmarked) [Halothane]
Octanol water partition coefficient ([4]; footnote 2: Urban et al. 1995): 315

OC(C(F)(F)F)C(F)(F)F [Hexafluoroisopropanol, 1,1,1,3,3,3-Hexafluoropropan-2-ol]
activity at 4000 µM ([1]; Epithelial cell, rat AEC, LPS 20 μg/ml 6 hours, 4 mmol/l in culture medium, positive control=100%, read-out: MCP-1 level in relation to LPS without any substance, Median): 98% | activity at 8000 µM ([1]; Epithelial cell, rat AEC, LPS 20 μg/ml 6 hours, 8 mmol/l in culture medium, positive control=100%, read-out: MCP-1 level in relation to LPS without any substance, Median): 101% | activity at 16000 µM [1, 11]: 63% | activity at 32000 µM [1, 14]: 11% | MCP-1 levels of epithelial cells stimulated with LPS (in words) ([1]; LPS stimulation): decrease was most pronounced | Viability and cytotoxicity in HMVEC [3]: does not cause significant cytotoxicity | Chemotaxis for neutrophils [7]: significantly attenuated chemotaxis | Octanol water partition coefficient [4, 13]: 0.37 ^(1) | CINC-1/GROa protein level in relation to LPS without any substance, Median ([2]; 4 mmol/l in culture medium): 49% | CINC-1/GROa protein level in relation to LPS without any substance, Median ([2]; 16 mmol/l in culture medium): 26% | CINC-1 levels of endothelial cells stimulated with LPS (in words) ([2]; LPS stimulation): decrease was most pronounced | Solubility ([5]; 25° C.): 1000 g/L (25° C.)

FC(F)OC(Cl)C(F)(F)F (centres unmarked) [Isoflurane]
Octanol water partition coefficient ([4]; footnote 2: Urban et al. 1995): 156 | Inflammatory mediators and tissue damage markers in patients [6]: significantly reduces

CC(C)C[C@H](N)C(=O)O [Leucine, reference compound]
activity at 16000 µM [1, 11]: 91%

COC(=O)CC(=O)C(F)(F)F [Methyl-4,4,4-trifluoro-acetoacetate]
activity at 16000 µM [1, 11]: 7% | activity at 32000 µM [1, 14]: 0%

CNC(=O)C(F)(F)F [Methyltrifluoroacetamide, N-Methyl-2,2,2-trifluoroacetamide]
activity at 8000 µM [1, 15]: 80% | activity at 16000 µM [1, 15]: 56% | activity at 32000 µM [1, 15]: 41% | activity at 64000 µM [1, 15]: 0%

Enflurane
Octanol water partition coefficient ([4]; footnote 2: Urban et al. 1995): 122

Sevoflurane
MCP-1 level in relation to LPS without any substance, Median [1, 10]: 68% | Octanol water partition coefficient ([4]; footnote 2: Urban et al. 1995): 71 | Inflammatory mediators and tissue damage markers in patients [6]: significantly reduces
